# Assay results taken from the supplement of paper PMC10307832.
# Key:
# Assay in all cases: relative viability (nuclei count vs DMSO), 5 days (fraction); higher = more cells survive
# [1] = system: SK-MES-1
# How it was run: (§1)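 Five library-drug doses in √10 steps were combined with a fixed anchor-drug dose, or a single drug was given alone, by pin tool to lung cancer cell lines in 1536-well plates the day after seeding. Nuclei were stained and counted after 5 days. Relative viability is the nuclei count in treated wells over that in vehicle wells, taken as the median of duplicate plates.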
# [2] = system: NCI-H647
# How it was run: as §1
# [3] = system: NCI-H2009
# How it was run: as §1
# [4] = system: NCI-H1792
# How it was run: as §1
# [5] = system: NCI-H1648
# How it was run: as §1
# [6] = system: HCC-15
# How it was run: as §1
# [7] = system: LCLC-97TM1
# How it was run: as §1
# [8] = system: RERF-LC-KJ
# How it was run: as §1
# [9] = system: SW 1573
# How it was run: as §1
# [10] = system: NCI-H650
# How it was run: as §1
# [11] = system: EPLC-272H
# How it was run: as §1
# [12] = system: NCI-H1395
# How it was run: as §1
# [13] = system: HCC-827
# How it was run: as §1
# [14] = system: HCC-44
# How it was run: as §1
# [15] = system: COR-L 105
# How it was run: as §1
# [16] = system: NCI-H1993
# How it was run: as §1
# [17] = system: ABC-1
# How it was run: as §1
# [18] = system: NCI-H661
# How it was run: as §1
# [19] = system: HCC-78
# How it was run: as §1
# [20] = system: NCI-H522
# How it was run: as §1
# [21] = system: NCI-H358
# How it was run: as §1
# [22] = system: HCC-366
# How it was run: as §1
smiles,measurement,setting,value
Oc1nc(-c2ccc(C(F)(F)F)cc2)nc2c1CSCC2 [XAV939] + CC(=O)c1c(C)c2cnc(Nc3ccc(N4CCNCC4)cn3)nc2n(C2CCCC2)c1=O [Palbociclib] (partner 0.5 µM),relative viability,[1]; first compound 0.08 µM,0.288
same,relative viability,[1]; first compound 0.253 µM,0.299
same,relative viability,[1]; first compound 0.8 µM,0.338
same,relative viability,[1]; first compound 2.53 µM,0.297
same,relative viability,[2]; first compound 0.08 µM,0.406
same,relative viability,[2]; first compound 0.253 µM,0.298
same,relative viability,[2]; first compound 0.8 µM,0.277
same,relative viability,[2]; first compound 2.53 µM,0.293
same,relative viability,[3]; first compound 0.08 µM,0.275
same,relative viability,[3]; first compound 0.253 µM,0.239
same,relative viability,[3]; first compound 0.8 µM,0.188
same,relative viability,[3]; first compound 2.53 µM,0.317
same,relative viability,[4]; first compound 0.08 µM,0.777
same,relative viability,[4]; first compound 0.253 µM,0.425
same,relative viability,[4]; first compound 0.8 µM,0.675
same,relative viability,[4]; first compound 2.53 µM,0.558
same,relative viability,[5]; first compound 0.253 µM,0.28
same,relative viability,[5]; first compound 0.8 µM,0.27
same,relative viability,[5]; first compound 2.53 µM,0.216
same,relative viability,[6]; first compound 0.08 µM,0.709
same,relative viability,[6]; first compound 0.253 µM,0.68
same,relative viability,[6]; first compound 0.8 µM,0.721
same,relative viability,[6]; first compound 2.53 µM,0.705
same,relative viability,[7]; first compound 0.08 µM,0.237
same,relative viability,[7]; first compound 0.253 µM,0.204
same,relative viability,[7]; first compound 2.53 µM,0.232
same,relative viability,[8]; first compound 0.08 µM,1.13
same,relative viability,[8]; first compound 0.253 µM,0.828
same,relative viability,[8]; first compound 0.8 µM,1.02
same,relative viability,[8]; first compound 2.53 µM,0.761
same,relative viability,[9]; first compound 0.08 µM,0.414
same,relative viability,[9]; first compound 0.253 µM,0.3
same,relative viability,[9]; first compound 0.8 µM,0.326
same,relative viability,[9]; first compound 2.53 µM,0.279
same,relative viability,[10]; first compound 0.08 µM,0.376
same,relative viability,[10]; first compound 0.253 µM,0.35
same,relative viability,[10]; first compound 0.8 µM,0.333
same,relative viability,[10]; first compound 2.53 µM,0.303
same,relative viability,[11]; first compound 0.08 µM,0.342
same,relative viability,[11]; first compound 0.253 µM,0.251
same,relative viability,[11]; first compound 0.8 µM,0.305
same,relative viability,[11]; first compound 2.53 µM,0.332
same,relative viability,[12]; first compound 0.08 µM,0.644
same,relative viability,[12]; first compound 0.253 µM,0.575
same,relative viability,[12]; first compound 0.8 µM,0.569
same,relative viability,[12]; first compound 2.53 µM,0.568
same,relative viability,[13]; first compound 0.08 µM,0.571
same,relative viability,[13]; first compound 0.253 µM,0.459
same,relative viability,[13]; first compound 0.8 µM,0.584
same,relative viability,[13]; first compound 2.53 µM,0.517
same,relative viability,[14]; first compound 0.08 µM,0.899
same,relative viability,[14]; first compound 0.253 µM,0.842
same,relative viability,[14]; first compound 0.8 µM,0.888
same,relative viability,[14]; first compound 2.53 µM,0.807
same,relative viability,[15]; first compound 0.08 µM,0.403
same,relative viability,[15]; first compound 0.253 µM,0.399
same,relative viability,[15]; first compound 0.8 µM,0.43
same,relative viability,[15]; first compound 2.53 µM,0.397
same,relative viability,[16]; first compound 0.08 µM,0.617
same,relative viability,[16]; first compound 0.253 µM,0.474
same,relative viability,[16]; first compound 0.8 µM,0.469
same,relative viability,[16]; first compound 2.53 µM,0.5
same,relative viability,[17]; first compound 0.253 µM,0.587
same,relative viability,[17]; first compound 0.8 µM,0.578
same,relative viability,[17]; first compound 2.53 µM,0.343
same,relative viability,[18]; first compound 0.08 µM,0.407
same,relative viability,[18]; first compound 0.253 µM,0.394
same,relative viability,[18]; first compound 0.8 µM,0.409
same,relative viability,[18]; first compound 2.53 µM,0.388
same,relative viability,[19]; first compound 0.08 µM,0.479
same,relative viability,[19]; first compound 0.253 µM,0.382
same,relative viability,[19]; first compound 0.8 µM,0.466
same,relative viability,[19]; first compound 2.53 µM,0.527
same,relative viability,[20]; first compound 0.08 µM,1.05
same,relative viability,[20]; first compound 0.253 µM,0.884
same,relative viability,[20]; first compound 0.8 µM,0.973
same,relative viability,[20]; first compound 2.53 µM,1.03
same,relative viability,[21]; first compound 0.08 µM,0.149
same,relative viability,[21]; first compound 0.253 µM,0.109
same,relative viability,[21]; first compound 0.8 µM,0.154
same,relative viability,[21]; first compound 2.53 µM,0.166
same,relative viability,[22]; first compound 0.08 µM,0.444
same,relative viability,[22]; first compound 0.253 µM,0.334
same,relative viability,[22]; first compound 0.8 µM,0.352
same,relative viability,[22]; first compound 2.53 µM,0.261
